Results: patent US20230204572A1, “Engineered Biosensors in an Encapsulated and Deployable System (EBEADS) for Environmental Chemical Detection” (priority 2021, published 2023)

Assays:
[1] = system: HbpR; assay: β-galactosidase (lacZ) reporter activity of sensing strain pBL_IMP_11 without amplification circuit in liquid culture; format: cell-based, Pseudomonas azelaica
Method: Cultures were grown overnight to saturation and then diluted to an OD600 of 0.2. Cultures were incubated at 30° C. with shaking until an OD600 of 0.7-1 before inducing cultures with 2-phenylphenol dissolved in 100% ethanol. Cultures were incubate for 3 hours or 1 mL samples were taken every hour. For experiments where 2-PP was removed after incubating for 3 hours, cultures were divided in two tubes and centrifuged. One half of the cultures were washed with 1×PBS to remove 2-phenylphenol and resuspended in fresh medium with antibiotics and without 2-phenylphenol. The other half was resuspended in their original medium without washing. Aliquots were taken every hour. […] Statistical significance of results was determined using a Student's two-tailed t-test. The limit of detection (LOD) was calculated using GraphPad Prism software and is defined as the blank plus three times the standard deviation of the blank.
In the bacterial sensor cells when exposed to 2-PP, the HbpR promoter is activated by 2-PP and HbpR protein is expressed from the transfected plasmids. […] The Limit of Detection (LOD) was calculated to be 0.863 μM for this sensor strain (FIG. 1i). […]
In order to test the response of the reporter over time, the sensor strains were treated with various amounts of 2-PP and reporter activity was measured every hour for five hours. […]

[2] = system: HbpR; assay: AmilCP visual reporter of sensing strains on agar plates and in liquid culture; format: cell-based, Pseudomonas azelaica
Method: Strains containing AmilCP reporters were incubated overnight to saturation at 30° C. with shaking. Three μl of culture were pipetted onto 6 cm LB-agar plates containing 0.2 mM IPTG, 100 μg/mL carbenicillin, 50 μg/mL kanamycin, and 0 μM, 1 μM, or 10 μM of 2-phenylphenol. Images of the plates were taken at time points 0, 6, 12, 24, and 48 hours with a Nikon SMZ25 stereoscope.
After 12-24 hours on agar plates containing 10 μM 2-phenylphenol, the strains with amplification circuit produced enough AmilCP purple reporter to become just barely visible.
While the response time for the AmilCP reporter was slower than the 2 hour response time observed with the β-galactosidase reporter, use of the AmilCP reporter allowed for reporter visualization without additional equipment. When absorbance at 588 nm was used, addition of the amplification circuit in the AmilCP system allowed for detection of 2-PP at concentrations as low as 1 μM (FIG. 4B). The increase in reporter production through genetic amplification made it feasible for the living sensor to maintain a robust, visual reporter output when encapsulated.

[3] = system: HbpR; assay: Sensor induction in hydrogel microbeads (eBEADS, amplification circuit strain, AmilCP); format: cell-based, Pseudomonas azelaica
Method: The encapsulated sensing strain's ability to detect low concentrations of 2-PP and produce a visible output signal were evaluated by time series of microscope images. Briefly, the positive control strain and 2-PP with amplification circuit strain were encapsulated in the PAA formulation as previously described above. The microbeads were placed on LB agar plates containing 0.2 mM IPTG, 100 μg/mL carbenicillin, and 50 μg/mL kanamycin supplemented with 0, 1 or 10 μM 2-phenylphenol and incubated at 30° C. Images of the sensing strain microbeads were taken at time points 0, 6, 12, 24, and 48 hours with a Nikon SMZ25 stereoscope.

[4] = system: aquatic organisms; conditions: EPA reregistration decision; cited from earlier work
[5] = system: mutant HbpR protein P6-A-8; conditions: 50 μM PCB-1 vs 50 μM 2-PP
Excerpt: (§1) To generate biosensor systems that detect additional analytes, HbpR mutants were generated using a HbpR codon optimized library sequence (SEQ ID NO: 4) and a plasmid containing the same (SEQ ID NO: 8) and selection against different analytes.

[6] = system: mutant HbpR protein P6-B-9; conditions: 50 μM PCB-1 vs 50 μM 2-PP
Excerpt: as §1

[7] = system: mutant HbpR protein P6-F-8; conditions: 50 μM PCB-1 vs 50 μM 2-PP
Excerpt: as §1

[8] = system: mutant HbpR protein P4-A-8; conditions: 50 μM PCB-3 vs 50 μM 2-HBP
Excerpt: as §1

[9] = agar plates, 1 μM and 10 μM 2-phenylphenol

Q: For `Oc1ccccc1-c1ccccc1` [2-PP, 2-phenylphenol], which “Limit of Detection (LOD)” value ([1]; lacZ reporter, no amplification, three hours, blank plus three SD) is on record?
A: Its value is 0.863 µM.

Q: And the “response time of β-galactosidase reporter” value ([1]; β-galactosidase reporter)?
A: The value was 2 h.

Q: What about the “lowest 2-PP concentration detected with AmilCP” value ([2]; absorbance at 588 nm, with amplification circuit, 24 hours) of the same molecule?
A: The value was no less than 1 µM.

Q: What about the “AmilCP colour after 48 hours, with amplification circuit” value [2, 9] of the same molecule?
A: The value was “vibrant purple color”.

Q: What about the “AmilCP colour after 48 hours, without amplification circuit” value [2, 9] of the same molecule?
A: The value was “faintly visible”.

Q: And the “time until AmilCP purple reporter just barely visible” value ([2]; agar plates, 10 μM 2-phenylphenol, with amplification circuit)?
A: The value was 12 to 24 h.

Q: What about the “time to purple color response of encapsulated strain” value ([3]; 10 μM 2-PP, 30° C.) of the same molecule?
A: The value was no more than 24 h.

Q: What about the “response of eBEADS at less than 10 μM” value ([3]; after 48 hours, less than 10 μM 2PP) of the same molecule?
A: Its value is “no response”.

Q: What about the “LC50 for some aquatic organisms” value [4] of the same molecule?
A: The value was no less than 0.32 µg/mL.

Q: Which results are given for `Clc1ccccc1-c1ccccc1` [PCB-1, polychlorinated biphenyl-1]?
A: lacZ reporter expression, mutant P6-A-8 [5]: selective lacZ reporter expression; lacZ reporter expression, mutant P6-B-9 [6]: selective lacZ reporter expression; lacZ reporter expression, mutant P6-F-8 [7]: selective lacZ reporter expression

Q: Which “lacZ reporter expression, mutant P4-A-8” value [8] does the source give for `Clc1ccc(-c2ccccc2)cc1` [PCB-3, polychlorinated biphenyl-3] here?
A: The value was “selective lacZ reporter expression”.
